Source: ChEMBL document CHEMBL6153059, “Discovery of a Potent Triazole-Based Reversible Targeted Covalent Inhibitor of Cruzipain” (ACS Med Chem Lett, 2025)
The source made the active and inactive calls. The calls are words filed in the database; no cut-off is given here.

Key:
[1] = molecular target: Cruzipain (Trypanosoma cruzi, UniProt P25779); assay: Inhibition of Trypanosoma cruzi cruzain using Z-FR-AMC as substrate preincubated for 10 mins followed by substrate addition and measured every 5 secs for 10 mins by fluorimetry
Sequence of Cruzipain (P25779 whole entry): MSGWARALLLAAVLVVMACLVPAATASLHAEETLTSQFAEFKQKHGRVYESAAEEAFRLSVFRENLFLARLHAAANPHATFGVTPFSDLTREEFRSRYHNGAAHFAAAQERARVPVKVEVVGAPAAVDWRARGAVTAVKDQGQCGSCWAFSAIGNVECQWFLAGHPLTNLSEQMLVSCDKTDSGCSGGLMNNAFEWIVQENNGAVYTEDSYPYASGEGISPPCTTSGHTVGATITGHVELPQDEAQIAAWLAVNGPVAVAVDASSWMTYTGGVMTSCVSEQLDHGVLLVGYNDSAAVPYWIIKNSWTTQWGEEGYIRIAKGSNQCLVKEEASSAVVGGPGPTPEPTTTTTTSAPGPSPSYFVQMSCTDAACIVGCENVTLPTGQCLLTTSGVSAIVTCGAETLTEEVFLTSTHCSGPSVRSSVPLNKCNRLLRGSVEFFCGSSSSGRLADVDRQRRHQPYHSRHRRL

[2] = system: Trypanosoma cruzi; assay: Antitrypanosomal activity against Trypanosoma cruzi Tulahuen trypomastigotes expressing Escherichia coli beta-galactosidase infected in African green monkey Vero cells incubated for 72 hrs by ONPG dye based microplate reader analysis; assay type: functional, organism-based
[3] = molecular target: Cruzipain (Trypanosoma cruzi) (UniProt P25779); assay: Inhibition of Trypanosoma cruzi cruzain at 100 uM using Z-FR-AMC as substrate measured every 5 secs for 10 mins by fluorimetry
Sequence of Cruzipain (Trypanosoma cruzi) (P25779 123-467 limits assumed): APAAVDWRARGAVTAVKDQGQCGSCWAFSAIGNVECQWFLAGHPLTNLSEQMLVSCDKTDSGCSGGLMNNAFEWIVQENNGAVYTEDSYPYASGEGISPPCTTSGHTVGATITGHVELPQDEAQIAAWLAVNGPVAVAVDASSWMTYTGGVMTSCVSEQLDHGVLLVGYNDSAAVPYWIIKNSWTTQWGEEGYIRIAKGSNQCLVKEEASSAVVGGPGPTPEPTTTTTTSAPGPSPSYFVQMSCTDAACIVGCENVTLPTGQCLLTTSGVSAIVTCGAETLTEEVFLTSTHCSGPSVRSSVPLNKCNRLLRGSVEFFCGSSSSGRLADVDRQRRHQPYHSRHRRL

[4] = molecular target: cathepsin L (Homo sapiens, UniProt P07711); assay: Inhibition of recombinant human cathepsin L expressed in FreeStyle 293-F cells using Z-FR-AMC as substrate at 100 uM preincubated for 10 mins followed by substrate addition and measured for 20 mins by fluorimetry; settings: probe Z-FR-AMC, time 30 min
Sequence of cathepsin L (P07711 whole entry): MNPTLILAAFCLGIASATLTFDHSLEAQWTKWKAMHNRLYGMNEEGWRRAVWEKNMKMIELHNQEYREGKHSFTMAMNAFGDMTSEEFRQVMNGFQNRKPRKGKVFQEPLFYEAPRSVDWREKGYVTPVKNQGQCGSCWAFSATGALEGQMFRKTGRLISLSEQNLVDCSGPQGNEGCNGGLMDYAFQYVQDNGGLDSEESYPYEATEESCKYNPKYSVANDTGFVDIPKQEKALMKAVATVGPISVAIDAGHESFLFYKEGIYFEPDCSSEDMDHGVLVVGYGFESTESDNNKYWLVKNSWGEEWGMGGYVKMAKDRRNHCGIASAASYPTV

[5] = molecular target: Cruzipain (Trypanosoma cruzi) (UniProt P25779); assay: Inhibition of Trypanosoma cruzi cruzain at 100 uM using Z-FR-AMC as substrate preincubated for 10 mins followed by substrate addition and measured every 5 secs for 10 mins by fluorimetry; settings: time 20.0 min
[6] = Dissociation constant, pKa of the compound for carboxyl group by potentiometric titration analysis; assay type: physicochemical
[7] = system: Trypanosoma cruzi; assay: Antitrypanosomal activity against Trypanosoma cruzi Tulahuen trypomastigotes expressing Escherichia coli beta-galactosidase infected in African green monkey Vero cells at 10 uM incubated for 72 hrs by ONPG dye based microplate reader analysis; assay type: functional
[8] = Dissociation constant, pKa of the compound for secondary ammonium by potentiometric titration analysis; assay type: physicochemical
[9] = system: Trypanosoma cruzi; assay: Antitrypanosomal activity against Trypanosoma cruzi Tulahuen trypomastigotes expressing Escherichia coli beta-galactosidase infected in African green monkey Vero cells at 50 uM incubated for 72 hrs by ONPG dye based microplate reader analysis; assay type: functional
[10] = Cytotoxicity against African green monkey Vero cells assessed as cell viability at 50 uM incubated for 96 hrs by resazurin dye based fluorescence analysis relative to control; assay type: toxicity; settings: chlorocebus sabaeus, read-out: Activity
[11] = molecular target: Cruzipain (Trypanosoma cruzi) (UniProt P25779); assay: Covalent reversible inhibition of Trypanosoma cruzi cruzain assessed as recovery of enzyme activity using Z-FR-AMC as substrate at 0.1XIC50 and measured for 2 hrs by jump dilution assay
[12] = molecular target: Cruzipain (Trypanosoma cruzi) (UniProt P25779); assay: Covalent reversible inhibition of Trypanosoma cruzi cruzain using Z-FR-AMC as substrate at 0.1XIC50 and measured at 10 mins post-dilution by jump dilution assay

Structure (SMILES)	IC50 [1]	inhibition [3]	inhibition at 20 min, 100 µM [4]	inhibition [5]	other results
NCCCC[C@@H](C=O)n1cc(C(NCc2ccc3c(c2)OCO3)C2CCCCC2)nn1 (stereo partly drawn)	3.3 µM				IC50 [2]: 3.2 µM
SC[C@@H](Cc1ccccc1)n1cc(C(NCc2ccc3c(c2)OCO3)C2CCCCC2)nn1 (stereo partly drawn)	7 µM	12%	0%	79%	
COc1ccc(COC(=O)[C@H](CS)n2cc(C(NCc3ccc4c(c3)OCO4)C3CCCCC3)nn2)cc1 (stereo partly drawn)				28%	
CCOC(=O)[C@H](CS)n1cc(C(NCc2ccc3c(c2)OCO3)C2CCCCC2)nn1 (stereo partly drawn)		3%		46%	
O=C(O)[C@H](CSC(c1ccccc1)(c1ccccc1)c1ccccc1)n1cc(C(NCc2ccc3c(c2)OCO3)C2CCCCC2)nn1 (stereo partly drawn)	6 µM		100%		pKa [6]: 3
O=C(O)[C@H](CS)n1cc(C(NCc2ccc3c(c2)OCO3)C2CCCCC2)nn1 (stereo partly drawn)	0.028 µM	13%	0%	100%	inhibition at 10 µM [7]: 76%; pKa [8]: 8.1; inhibition at 50 µM [9]: 98%; viability at 96 h, 50 µM [10]: 80%; inhibition [11]: Active; inhibition [12]: inactive; pKa [6]: 4; IC50 [2]: 6.67 µM
COC(=O)[C@H](CS)n1cc(C(NCc2ccc3c(c2)OCO3)C2CCCCC2)nn1 (stereo partly drawn)		6%		53%	
CC(C)[C@H](CS)n1cc(C(NCc2ccc3c(c2)OCO3)C2CCCCC2)nn1 (stereo partly drawn)		6%		43%	
